# From patent publication US10646440B2, “Sanguisorbigenin polymer micelle and preparative methods thereof” (SICHUAN INLU WEITE PHARMACEUTICAL TECHNOLOGY CO., LTD., priority 2016, dated 2020)
# Tested on: KM-mice given cyclophosphamide (bone marrow suppression)
# Experiment: Pharmacodynamic experiment: cyclophosphamide-induced bone marrow suppression, peripheral blood counts
# Type: in vivo
# [1] = cyclophosphamide 120 mg/kg i.p. day 1, 2.5 mg/kg for 6 days, blood on day 7, mean ± s
compound,measurement,setting,value
"CC1CC[C@]2(C(=O)O)CC[C@]3(C)C(=CCC4[C@@]5(C)CCC(O)C(C)(C)C5CC[C@]43C)C2[C@]1(C)O (stereo partly drawn) [Sanguisorbigenin, 3β,19β-dihydroxyurs-12-en-28-oic acid]",numbers of NEUT and HGB in peripheral blood compared with model group,"2.5 mg/kg, P<0.05",did not show significant difference
same,"numbers of WBC, RBC, and PLT in peripheral blood compared with model group","2.5 mg/kg, P<0.05",did not show significant difference
same,HGB in peripheral blood,[1],45.47 ± 8.39 ^ g/L
same,NEUT in peripheral blood,[1],2.56 ± 0.13 ×10^9
same,PLT in peripheral blood,[1],231.16 ± 15.27 ×10^9
same,RBC in peripheral blood,[1],3.15 ± 0.19 ×10^12
same,WBC in peripheral blood,[1],2.79 ± 0.26 ×10^9
